Data as given in ChEMBL document CHEMBL4052797, “N-alkyl-[1,1'-biphenyl]-2-sulfonamide derivatives as novel broad spectrum anti-epileptic drugs with efficacy equivalent to that of sodium valproate” (2017).
Activity calls are given as the source filed them.

How the values were obtained:
Mus musculus [1] = experiment: Anticonvulsant activity in maximal electroshock induced seizure mouse model assessed as reduction in convulsions at 25 mg/kg, po; format: functional, organism-based
Mus musculus [2] = experiment: Anticonvulsant activity in maximal electroshock induced seizure mouse model assessed as reduction in convulsions at 100 mg/kg, po; format: functional, organism-based
Mus musculus [3] = experiment: Anticonvulsant activity in subcutaneous pentylenetetrazole-induced seizure mouse model assessed as reduction in convulsions at 100 mg/kg, po; format: functional, organism-based
Rattus norvegicus [4] = experiment: Anticonvulsant activity in amygdala kindling rat model assessed as change in after discharge duration at 30 mg/kg, po (reference value: -5.5%); format: functional
Rattus norvegicus [5] = experiment: Anticonvulsant activity in amygdala kindling rat model assessed as change in after discharge duration at 100 mg/kg, po (reference value: -5.5%); format: functional
Rattus norvegicus [6] = experiment: Anticonvulsant activity in amygdala kindling rat model assessed as change in after discharge threshold at 30 mg/kg, po relative to control; format: functional
Rattus norvegicus [7] = experiment: Anticonvulsant activity in amygdala kindling rat model assessed as change in after discharge threshold at 100 mg/kg, po relative to control; format: functional
Mus musculus [8] = experiment: Anticonvulsant activity in po dosed subcutaneous pentylenetetrazole-induced seizure mouse model assessed as reduction in convulsions; format: functional
Mus musculus [9] = experiment: Anticonvulsant activity in po dosed maximal electroshock induced seizure mouse model assessed as reduction in convulsions; format: functional
Mus musculus [10] = experiment: Therapeutic index, ratio of TD50 for neurotoxicity in po dosed mouse to ED50 for po dosed maximal electroshock induced seizure mouse model
Mus musculus [11] = experiment: Therapeutic index, ratio of TD50 for neurotoxicity in po dosed mouse to ED50 for po dosed 6-Hz induced seizure mouse model
Mus musculus [12] = experiment: Neurotoxicity in po dosed mouse by rotarod test; format: functional
Mus musculus [13] = experiment: Anticonvulsant activity in po dosed 6-Hz induced seizure mouse model; format: functional
Mus musculus [14] = experiment: Anticonvulsant activity in subcutaneous pentylenetetrazole-induced seizure mouse model assessed as reduction in convulsions at 50 mg/kg, po; format: functional, organism-based
Mus musculus [15] = experiment: Anticonvulsant activity in maximal electroshock induced seizure mouse model assessed as reduction in convulsions at 50 mg/kg, po; format: functional, organism-based
Mus musculus [16] = experiment: Anticonvulsant activity in subcutaneous pentylenetetrazole-induced seizure mouse model assessed as reduction in convulsions at 25 mg/kg, po; format: functional, organism-based
Mus musculus [17] = experiment: Anticonvulsant activity in ip dosed subcutaneous pentylenetetrazole-induced seizure mouse model assessed no observable episode of clonic seizure; format: functional
Mus musculus [18] = experiment: Anticonvulsant activity in ip dosed maximal electroshock induced seizure mouse model assessed as suppression in hindlimb tonic extension; format: functional
Rattus norvegicus [19] = experiment: Anticonvulsant activity in amygdala kindling rat model assessed as change in after discharge duration at 600 mg/kg, po (reference value: -5.5%); format: functional
Rattus norvegicus [20] = experiment: Anticonvulsant activity in amygdala kindling rat model assessed as change in after discharge duration at 300 mg/kg, po (reference value: -5.5%); format: functional
Rattus norvegicus [21] = experiment: Anticonvulsant activity in amygdala kindling rat model assessed as change in after discharge threshold at 300 mg/kg, po relative to control; format: functional
Rattus norvegicus [22] = experiment: Anticonvulsant activity in amygdala kindling rat model assessed as change in after discharge threshold at 600 mg/kg, po relative to control; format: functional

SMILES: CNS(=O)(=O)c1ccccc1-c1ccc(Cl)cc1
- Activity (Mus musculus [1]): inactive
- Activity (Mus musculus [2]): Active

SMILES: CNS(=O)(=O)c1ccccc1-c1ccc(OC)cc1
- Activity (Mus musculus [3]): inactive
- Activity (Mus musculus [2]): inactive

SMILES: NS(=O)(=O)Cc1noc2ccccc12 [ZONISAMIDE]
- Activity (Rattus norvegicus [4]): 7%
- Activity (Rattus norvegicus [5]): -37.6%
- Activity (Rattus norvegicus [6]): 5.1%
- Activity (Rattus norvegicus [7]): 45.9%
- ED50 (Mus musculus [8]): > 500 mg/kg
- ED50 (Mus musculus [9]): 20 mg/kg

SMILES: CNS(=O)(=O)c1ccccc1-c1ccccc1F
- Ratio TD50/ED50 (Mus musculus [10]): 6.7
- Ratio TD50/ED50 (Mus musculus [11]): 2
- TD50 (Mus musculus [12]): 107 mg/kg
- ED50 (Mus musculus [13]): 53 mg/kg
- Activity (Rattus norvegicus [5]): -1.4%
- Activity (Rattus norvegicus [7]): 352.5%
- Activity (Mus musculus [14]): Active
- Activity (Mus musculus [1]): Active
- Activity (Mus musculus [3]): Active
- ED50 (Mus musculus [9]): 16 mg/kg
- Activity (Mus musculus [2]): Active
- Activity (Mus musculus [15]): Active

SMILES: CCNS(=O)(=O)c1ccccc1-c1ccccc1
- Activity (Mus musculus [16]): inactive
- Activity (Mus musculus [1]): inactive
- Activity (Mus musculus [2]): Active
- Activity (Mus musculus [15]): Active

SMILES: CNS(=O)(=O)c1ccccc1-c1ccccc1Cl
- Activity (Mus musculus [2]): Active
- Activity (Mus musculus [15]): Active

SMILES: NS(=O)(=O)c1ccccc1-c1ccccc1
- Activity (Mus musculus [2]): Active
- Activity (Mus musculus [15]): Active

SMILES: CNS(=O)(=O)c1ccccc1-c1cccc(OC)c1
- Activity (Mus musculus [2]): inactive

SMILES: CNS(=O)(=O)c1ccccc1-c1cccc(F)c1
- Activity (Mus musculus [1]): inactive
- Activity (Mus musculus [2]): Active

SMILES: CNS(=O)(=O)c1ccccc1-c1cccc(Cl)c1
- Activity (Mus musculus [1]): inactive
- Activity (Mus musculus [2]): Active

SMILES: CCS(=O)(=O)c1ccccc1-c1ccccc1
- Activity (Mus musculus [3]): Active
- Activity (Mus musculus [2]): inactive

SMILES: CNS(=O)(=O)c1ccccc1-c1ccc(F)cc1
- Activity (Mus musculus [3]): inactive
- Activity (Mus musculus [2]): Active
- Activity (Mus musculus [15]): Active

SMILES: CN(C)S(=O)(=O)c1ccccc1-c1ccccc1
- Activity (Mus musculus [14]): inactive
- Activity (Mus musculus [15]): inactive

SMILES: CNS(=O)(=O)c1ccccc1-c1ccccc1
- Activity (Mus musculus [14]): inactive
- Activity (Mus musculus [2]): Active
- Activity (Mus musculus [15]): Active

SMILES: CN(C)S(=O)(=O)c1cccc(Cl)c1
- Activity (Mus musculus [15]): Active

SMILES: CN(C)S(=O)(=O)c1ccccc1-c1cccnc1
- Activity (Mus musculus [3]): inactive

SMILES: CN(C)S(=O)(=O)c1ccccc1-c1ccccn1
- Activity (Mus musculus [3]): inactive

SMILES: CN(C)S(=O)(=O)c1ccccc1-c1ccco1
- Activity (Mus musculus [2]): inactive

SMILES: CNS(=O)(=O)c1ccccc1-c1ccccc1OC
- Activity (Mus musculus [3]): inactive
- Activity (Mus musculus [2]): inactive

SMILES: CC1(C)O[C@@H]2[C@@H](CO[C@@]3(COS(N)(=O)=O)OC(C)(C)O[C@@H]23)O1 [TOPIRAMATE]
- ED50 (Mus musculus [17]): > 800 mg/kg
- ED50 (Mus musculus [18]): 33 mg/kg

SMILES: CCCC(CCC)C(=O)[O-].[Na+] [VALPROATE SODIUM]
- TD50 (Mus musculus [12]): 396 mg/kg
- ED50 (Mus musculus [13]): 394 mg/kg
- Activity (Rattus norvegicus [19]): -22.5%
- Activity (Rattus norvegicus [20]): 11.1%
- Activity (Rattus norvegicus [21]): -5.4%
- Activity (Rattus norvegicus [22]): 81.3%
- ED50 (Mus musculus [9]): 337 mg/kg

SMILES: CN(C)S(=O)(=O)c1ccccc1-c1ccoc1
- Activity (Mus musculus [2]): inactive

SMILES: O=S(=O)(c1ccccc1-c1ccccc1)C(F)(F)F
- Activity (Mus musculus [3]): inactive
- Activity (Mus musculus [2]): inactive

SMILES: CCCNS(=O)(=O)c1ccccc1-c1ccccc1
- Activity (Mus musculus [2]): Active

SMILES: CS(=O)(=O)c1ccccc1-c1ccccc1F
- Activity (Mus musculus [2]): Active

SMILES: CN(C)S(=O)(=O)c1ccccc1-c1ccncc1
- Activity (Mus musculus [2]): inactive

SMILES: CN(C)S(=O)(=O)c1ccccc1-c1cccs1
- Activity (Mus musculus [3]): inactive
- Activity (Mus musculus [2]): inactive
